In brackets after ≈: the same amount, converted by molar mass. Activity calls are given as the source filed them. The calls are words filed in the database; no cut-off is given here.
Key:
[1] = system: Mycobacterium tuberculosis; assay: Antimycobacterial activity against Mycobacterium tuberculosis H37Ra by Alamar blue assay; type: functional
BC = assay: (§1) Cytotoxicity against human BC cells; type: functional, cell-based
KB = assay: Cytotoxicity against human KB cells; type: functional, cell-based
NCI-H187 = assay: Cytotoxicity against human NCI-H187 cells; type: functional, cell-based
Plasmodium falciparum = assay: Antimalarial activity against multidrug-resistant Plasmodium falciparum K1 by microculture radioisotope assay; type: functional, organism-based
[2] = as §1; type: functional, cell-based

With `CO[C@@H]1C[C@@]23C(=C[C@H]1O)CCN2C(=O)C(=O)c1cc2c(cc13)OCO2` the Activity [1] was “inactive”, the Activity (BC) was “inactive” and the Activity (KB) was “inactive”. For the same compound, the Activity (NCI-H187) was “inactive” and the Activity (Plasmodium falciparum) was “inactive”.
`COc1c(CC=C(C)C)c(O)cc2c1[C@@H]1Oc3c(ccc(O)c3CC=C(C)C)[C@@H]1CO2` gave an MIC [1] of 50 µg/mL (≈ 118 µM), an IC50 [2] of 7.6 µg/mL (≈ 18 µM) and an IC50 (KB) of 7.6 µg/mL (≈ 18 µM). For the same compound, the IC50 (NCI-H187) was 7.6 µg/mL (≈ 18 µM).
Compound `COc1ccc2c(c1)OC[C@@]1(O)c3ccc4c(c3O[C@@H]21)C[C@H](O)C(C)(C)O4` [ERYVARIN A] has an MIC [1] of 100 µg/mL (≈ 270 µM).
With `COc1cc2c(cc1OC)[C@]13C[C@@H](OC)[C@H](O)C=C1CCN3C(=O)C2=O` the Activity [1] was “inactive”, the Activity (BC) was “inactive” and the Activity (KB) was “inactive”. The Activity (NCI-H187) was “inactive” and the Activity (Plasmodium falciparum) was “inactive”.
In the case of `CC(C)=CCc1cc([C@@H]2CC(=O)c3c(O)cc(O)cc3O2)cc(CC=C(C)C)c1O` [ABYSSINONE V], the MIC [1] is reported as 100 µg/mL (≈ 245 µM) and the IC50 (Plasmodium falciparum) is reported as 7 µg/mL (≈ 17.1 µM).
For `CC(C)=CCc1cc([C@@H]2CC(=O)c3c(O)cc(O)c(CC=C(C)C)c3O2)ccc1O` [LESPEDEZAFLAVANONE B], the MIC [1] was 100 µg/mL (≈ 245 µM), the IC50 [2] was 7.6 µg/mL (≈ 18.6 µM) and the IC50 (KB) was 7.6 µg/mL (≈ 18.6 µM). The IC50 (NCI-H187) was 7.6 µg/mL (≈ 18.6 µM) and the IC50 (Plasmodium falciparum) was 3.7 µg/mL (≈ 9.06 µM).

Reference: ChEMBL document CHEMBL1144705, “Erythrina alkaloids and a pterocarpan from the bark of Erythrina subumbrans” (J Nat Prod, 2008)
